Data set [1] is described as follows: The release rate of the free drug from the substrate in presence of Cathepsin B by Cathepsin B assay. It is filed as ADME.
Data set [2] is described as follows: The release rate of the free drug from the substrate in human plasma by human plasma stability assay; Not hydrolyzed. The format is ADME, cell-free.
A further data set is filed under the species Rattus norvegicus. The data set is described as follows: The release rate of the free drug from the substrate in rat liver lysosomal preparation by rat liver lysosomal assay. The format is ADME.
Data set [3] is described as follows: The release rate of the free drug from the substrate in human plasma by human plasma stability assay. It is filed as ADME, cell-free.

Take `COc1cccc2c1C(=O)c1c(O)c3c(c(O)c1C2=O)C[C@@](O)(C(=O)CO)C[C@@H]3OC1CC(NC(=O)OCc2ccc(NC(=O)[C@H](CCCCN)NC(=O)[C@H](Cc3ccccc3)NC(=O)OCc3ccccc3)cc2)C(O)C(C)O1` (some centres not stated): the results for the T1/2 (in data set [1]; in data set [2]; in the data set filed under Rattus norvegicus) were 8 min, “Not hydrolyzed” and 29 min, respectively.
On to `COC12C(COC(N)=O)C3=C(C(=O)C(C)=C(N)C3=O)N1CC1C2N1C(=O)OCc1ccc(NC(=O)[C@H](CCCCN)NC(=O)[C@H](Cc2ccccc2)NC(=O)OC(C)(C)C)cc1` (some centres not stated), for which the T1/2 in data set [1] stood at 10 min; in data set [3], 149 h; in the data set listed under Rattus norvegicus, 24 min.
In the case of `CC(=O)O[C@H]1C(=O)[C@@]2(C)C([C@H](OC(=O)c3ccccc3)[C@]3(O)C[C@H](OC(=O)[C@H](OC(=O)OCc4ccc(NC(=O)[C@H](CCCCN)NC(=O)[C@H](Cc5ccccc5)NC(=O)OCc5ccccc5)cc4)[C@@H](NC(=O)c4ccccc4)c4ccccc4)C(C)=C1C3(C)C)[C@]1(OC(C)=O)COC1C[C@@H]2O` (some centres not stated), the T1/2 in data set [1] is 540 min; in data set [2], “Not hydrolyzed”; in the data set listed under Rattus norvegicus, 19 min.
`CC(=O)O[C@H]1C(=O)[C@@]2(C)C([C@H](OC(=O)c3ccccc3)[C@]3(O)C[C@H](OC(=O)[C@H](O)[C@@H](NC(=O)c4ccccc4)c4ccccc4)C(C)=C1C3(C)C)[C@]1(OC(C)=O)COC1C[C@@H]2OC(=O)OCc1ccc(NC(=O)[C@H](CCCCN)NC(=O)[C@H](Cc2ccccc2)NC(=O)OC(C)(C)C)cc1` (some centres not stated): the T1/2 in data set [1] was 40 min; in data set [2], “Not hydrolyzed”; in the data set listed under Rattus norvegicus, 66 min.
